The target of one assay is AR (Homo sapiens (Human), UniProt P10275, T878A). Put plainly: AR binding assay. The method, then:
AR binding assay: To assess AR binding, test compound (top dose 10 μM, 4 fold serial dilution, 8 point dose response) and control (progesterone) were transferred to the assay plate. Cytosol from LnCaP cells was added to the plate, followed by addition of radiolabeled ^3H-R1881 at a final concentration of 1 nM. The plate was sealed, and the reaction was incubated at 300 rpm at 4° C. for 24 hrs. Radioligand absorption buffer (10 mM Tris-HCl, pH 7.4; 1.5 mM EDTA; 1 mM DTT; 0.25% charcoal; 0.0025% dextran) was then added to the plate, mixed, and incubated at 4° C. for 15 minutes. The plate was then centrifuged at 3000 rpm for 30 minutes at 4° C. The supernatant was transferred to the scint-tube and Tri-carb was used for scintillation counting. The data was analyzed using GraphPadPrism v5.0 and binding IC50 was determined as the concentration where 50% inhibition of radioligand binding was observed.

Assay [1] addresses full-length androgen receptor (Homo sapiens (Human), UniProt P10275). Nature of the assay: AR antagonism assay. Format: cell-based. The method, then: AR antagonism assay: To evaluate AR antagonist activity, test compound was added to the assay plate (top dose 10 μM, 3 fold serial dilution, 10 point dose response). HEK293 cells stably expressing the full-length androgen receptor were seeded at a density of 20,000 cells/well in the assay plate. The assay plate was then incubated at room temperature for 10 minutes and at 37° C., 5% CO2 for 20 minutes. Testosterone was added to the assay plate at 1 nM final concentration and the assay plate incubated at 37° C., 5% CO2 for 20 h. After the incubation period, Steady-glo was added to the assay plate and mixed at room temperature for 20 minutes on an orbital shaker, before reading out on the EnVision plate reader.

The test system of another assay is LNCap cells. Put plainly: Cell viability assay, LNCap. Format: cell-based. The conditions noted are these: Homo sapiens, 144 h. The method, then: (§1) Cell viability assay: LNCap, 22Rv1, MCF7, MDAMB361, T47D, and IEC6 cells are seeded at a density of 500-2000 cells/well in 96 well plates, and a ‘T0’ (timepoint 0) was included along with the assay plate. The plates are then incubated at 37° C., 5% CO2 in a cell culture incubator overnight. On the next day, the ‘T0’ plate was assayed using CellTiterGlo (Promega, Inc) according to the manufacturer's instructions. The appropriate compounds are diluted in DMSO and added to the assay plate (final DMSO concentration of 0.1-0.2%) on the next day. The assay plates are incubated for 6 days at 37° C., 5% CO2. After the incubation period, the plates are assayed using CellTiterGlo (Promega, Inc) according to the manufacturer's instructions and luminescence was read on the EnVision plate reader. Inhibition of the tested compounds was determined by the following formula: Inhibition rate (%)=(1−(RLU compound−RLU day0)/(RLU control−RLU day0))*100%. GraphPadPrism was used to analyze the data and determine GI50/IC50 values.

The next assay relates to 22Rv1 cells. Put plainly: Cell viability assay, 22Rv1. Format: cell-based. The conditions noted are these: Homo sapiens. On the procedure:
as §1

The next assay has as its system IEC6 cells. Nature of the assay: Cell viability assay, IEC6. The assay is classed as cell-based. The conditions noted are these: Rattus norvegicus; for pIC50: 144 h, IEC-6 cells, 6 days, CellTiterGlo, read-out: IEC-6 (IC50); for IC50: IEC-6, 144 h, read-out: IEC-6 (IC50, nM). On the procedure: as §1
Setting [2] is: cytosol from LnCaP cells, 3H-R1881 1 nM, 4° C. 24 hrs, read-out: AR binding.
Where [3] appears, read: LNCap cells, 6 days, CellTiterGlo, read-out: LNCap (GI50).
Setting [4] is: 144 h, 22RV1 cells, 6 days, CellTiterGlo, read-out: 22RV1 (GI50).
[5] abbreviates: HEK293 cells stably expressing full-length androgen receptor, testosterone 1 nM, 20 h, read-out: AR antagonism.
Where [6] appears, read: LNCaP, read-out: LNCap (GI50, nM).
The mark [7] stands for this setting: 22Rv1, 144 h, read-out: 22RV1 (GI50, nM).

The record followed here is patent publication US11834458B2, “Anti-cancer nuclear hormone receptor-targeting compounds” (Nuvation Bio Inc., priority 2021, dated 2023).

pIC50: −log10 of the molar value. Where two headings read alike, the source gives them in different places.

Sequence of AR (P10275 whole entry T878A): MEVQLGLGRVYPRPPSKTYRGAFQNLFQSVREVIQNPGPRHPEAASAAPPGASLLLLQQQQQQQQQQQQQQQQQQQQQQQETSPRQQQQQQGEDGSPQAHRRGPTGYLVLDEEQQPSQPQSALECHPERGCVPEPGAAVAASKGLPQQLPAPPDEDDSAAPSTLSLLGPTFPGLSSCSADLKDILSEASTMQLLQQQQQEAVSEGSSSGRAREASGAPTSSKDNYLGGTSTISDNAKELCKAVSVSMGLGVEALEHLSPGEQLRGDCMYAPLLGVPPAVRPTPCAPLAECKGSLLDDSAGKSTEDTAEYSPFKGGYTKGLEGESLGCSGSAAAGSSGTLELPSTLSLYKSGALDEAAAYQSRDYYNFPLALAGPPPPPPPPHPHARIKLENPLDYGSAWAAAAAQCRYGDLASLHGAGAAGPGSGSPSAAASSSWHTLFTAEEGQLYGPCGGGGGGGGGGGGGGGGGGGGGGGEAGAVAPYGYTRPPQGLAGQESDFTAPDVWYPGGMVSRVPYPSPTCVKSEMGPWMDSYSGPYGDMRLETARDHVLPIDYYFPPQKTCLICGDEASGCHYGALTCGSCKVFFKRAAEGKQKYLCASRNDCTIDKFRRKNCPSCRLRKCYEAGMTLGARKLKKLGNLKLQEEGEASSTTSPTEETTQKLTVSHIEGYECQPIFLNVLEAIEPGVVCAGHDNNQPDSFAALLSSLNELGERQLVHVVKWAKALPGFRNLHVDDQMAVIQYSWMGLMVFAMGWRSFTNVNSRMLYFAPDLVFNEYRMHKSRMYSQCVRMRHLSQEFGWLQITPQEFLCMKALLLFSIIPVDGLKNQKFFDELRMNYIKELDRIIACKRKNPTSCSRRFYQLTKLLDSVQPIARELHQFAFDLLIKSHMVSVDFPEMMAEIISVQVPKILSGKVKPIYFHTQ
Sequence of full-length androgen receptor (P10275 whole entry): as the sequence (P10275 whole entry T878A) above, with A878T counted along it

Turning to `CC[C@@]1(O)C(=O)OCc2c1cc1n(c2=O)Cc2cc3c(CN4CCN(C(=O)CCCCCOc5ccc(C(=O)N[C@H]6CC[C@H](Oc7ccc(C#N)c(Cl)c7)CC6)cc5)CC4)c(O)ccc3nc2-1` [Compound 12, N-((1r,4r)-4-(3-Chloro-4-cyanophenoxy)cyclohexyl)-4-((6-(4-(((S)-4-ethyl-4,9-dihydroxy-3,14-dioxo-3,4,12,14-tetrahydro-1H-pyrano[3′,4′:6,7]indolizino[1,2-b]quinolin-10-yl)methyl)piperazin-1-yl)-6-oxohexyl)oxy)benzamide], the pIC50 on AR (setting [2]) is less than 6.00; in assay [1], 6.30 to 8.00; in the assay on IEC6 cells, less than 6.00. For the same compound, the GI50 (in general, the concentration at which growth is held to half of that of the control) with LNCap cells (setting [3]) was 10 to 500 nM; in the assay with 22Rv1 cells (setting [4]) it was 501 to 1000 nM.

In the case of `CC[C@@]1(O)C(=O)OCc2c1cc1n(c2=O)Cc2cc3c(CN4CCN(C(=O)C5CCN(c6ccc(C(=O)N[C@H]7CC[C@H](Oc8ccc(C#N)c(Cl)c8)CC7)nn6)CC5)CC4)c(O)ccc3nc2-1` [Compound 14, N-((1r,4r)-4-(3-Chloro-4-cyanophenoxy)cyclohexyl)-6-(4-(4-(((S)-4-ethyl-4,9-dihydroxy-3,14-dioxo-3,4,12,14-tetrahydro-1H-pyrano[3′,4′:6,7]indolizino[1,2-b]quinolin-10-yl)methyl)piperazine-1-carbonyl)piperidin-1-yl)pyridazine-3-carboxamide], the pIC50 is 6.30 to 8.00 on AR (setting [2]), 6.30 to 8.00 in assay [1] and less than 6.00 in the assay on IEC6 cells. Further, the 50% growth inhibitory concentration (GI50) in the assay with LNCap cells (setting [3]) and in the assay with 22Rv1 cells (setting [4]) was 10 to 500 nM each time.

Turning to `CC[C@@]1(O)C(=O)OCc2c1cc1n(c2=O)Cc2cc3c(CN(C)C)c(OCCCCCOc4ccc(C(=O)N[C@H]5CC[C@H](Oc6ccc(C#N)c(Cl)c6)CC5)cc4)ccc3nc2-1` [Compound 7, N-((1r,4r)-4-(3-Chloro-4-cyanophenoxy)cyclohexyl)-4-((5-(((S)-10-((dimethylamino)methyl)-4-ethyl-4-hydroxy-3,14-dioxo-3,4,12,14-tetrahydro-1H-pyrano[3′,4′:6,7]indolizino[1,2-b]quinolin-9-yl)oxy)pentyl)oxy)benzamide], the results for the pIC50 (at AR (setting [2]); in assay [1]; in the assay with IEC6 cells) were less than 6.00, 6.30 to 8.00 and 6.00 to 6.30, respectively. The GI50 in the assay with LNCap cells (setting [3]) and in the assay on 22Rv1 cells (setting [4]) was 10 to 500 nM each time.

For the compound `CC[C@@]1(O)C(=O)OCc2c1cc1n(c2=O)Cc2cc3c(CN4CCC(N(C)C(=O)CO[C@H]5CC[C@H]6[C@@H]7CC[C@H]8CC(=O)CC[C@]8(C)[C@H]7CC[C@]56C)CC4)c(O)ccc3nc2-1` [Compound 18, 2-(((5S,8R,9S,10S,13S,14S,17S)-10,13-Dimethyl-3-oxohexadecahydro-1H-cyclopenta[a]phenanthren-17-yl)oxy)-N-(1-(((S)-4-ethyl-4,9-dihydroxy-3,14-dioxo-3,4,12,14-tetrahydro-1H-pyrano[3′,4′:6,7]indolizino[1,2-b]quinolin-10-yl)methyl)piperidin-4-yl)-N-methylacetamide], the pIC50 on AR (setting [2]) was 6.30 to 8.00; in assay [1], less than 6.00; in the assay with IEC6 cells, less than 6.00. The GI50 in the assay with LNCap cells (setting [3]) and with 22Rv1 cells (setting [4]) was 10 to 500 nM in each case.

Consider `CC[C@@]1(O)C(=O)OCc2c1cc1n(c2=O)Cc2cc3c(CN(C)C)c(OC(=O)N4CCC(N(C)C(=O)CO[C@H]5CC[C@H]6[C@@H]7CC[C@H]8CC(=O)CC[C@]8(C)[C@H]7CC[C@]56C)CC4)ccc3nc2-1` [Compound 20, (S)-10-((Dimethylamino)methyl)-4-ethyl-4-hydroxy-3,14-dioxo-3,4,12,14-tetrahydro-1H-pyrano[3′,4′:6,7]indolizino[1,2-b]quinolin-9-yl 4-(2-(((5S,8R,9S,10S,13S,14S,17S)-10,13-dimethyl-3-oxohexadecahydro-1H-cyclopenta[a]phenanthren-17-yl)oxy)-N-methylacetamido)piperidine-1-carboxylate], for which the results for the pIC50 (on AR; in assay [1] (setting [5])) were 6.30 to 8.00 and less than 6.00, respectively. In addition, the GI50 in the assay with LNCap cells (setting [6]) and in the assay with 22Rv1 cells (setting [7]) was 10 to 500 nM each time. For the same compound, the IC50 (commonly the concentration that gives 50% inhibition) in the assay with IEC6 cells was more than 1000 nM.

Consider `CC[C@@]1(O)C(=O)OCc2c1cc1n(c2=O)Cc2cc3c(CN(C)C)c(OC(=O)N(C)C4CCN(C(=O)CO[C@H]5CC[C@H]6[C@@H]7CC[C@H]8CC(=O)CC[C@]8(C)[C@H]7CC[C@]56C)CC4)ccc3nc2-1` [Compound 21, (S)-10-((Dimethylamino)methyl)-4-ethyl-4-hydroxy-3,14-dioxo-3,4,12,14-tetrahydro-1H-pyrano[3′,4′:6,7]indolizino[1,2-b]quinolin-9-yl (1-(2-(((5S,8R,9S,10S,13S,14S,17S)-10,13-dimethyl-3-oxohexadecahydro-1H-cyclopenta[a]phenanthren-17-yl)oxy)acetyl)piperidin-4-yl)(methyl)carbamate], for which the pIC50 at AR was 6.30 to 8.00; in assay [1] (setting [5]), less than 6.00. Also, the GI50 with LNCap cells (setting [6]) and in the assay on 22Rv1 cells (setting [7]) was 10 to 500 nM in each case. For the same compound, the IC50 in the assay with IEC6 cells was more than 1000 nM.

For `CC[C@@]1(O)C(=O)OCc2c1cc1n(c2=O)Cc2cc3c(CN4CCN(CC5CCN(c6ccc(C(=O)N[C@H]7CC[C@H](Oc8ccc(C#N)c(Cl)c8)CC7)nn6)CC5)CC4)c(O)ccc3nc2-1` [Compound 11, N-((1r,4r)-4-(3-Chloro-4-cyanophenoxy)cyclohexyl)-6-(4-((4-(((S)-4-ethyl-4,9-dihydroxy-3,14-dioxo-3,4,12,14-tetrahydro-1H-pyrano[3′,4′:6,7]indolizino[1,2-b]quinolin-10-yl)methyl)piperazin-1-yl)methyl)piperidin-1-yl)pyridazine-3-carboxamide], the pIC50 at AR (setting [2]) is 6.30 to 8.00; in assay [1], 6.30 to 8.00; with IEC6 cells it was 6.00 to 6.30. Further, the GI50 in the assay on LNCap cells (setting [3]) and in the assay with 22Rv1 cells (setting [4]) was 10 to 500 nM each time.

As for `CC[C@@]1(O)C(=O)OCc2c1cc1n(c2=O)Cc2cc3c(CN(C)C)c(OC(=O)N4CCN(CCCCCCO[C@@H]5CC[C@@H]6[C@H]7CC[C@@H]8CC(=O)CC[C@@]8(C)[C@@H]7CC[C@]65C)CC4)ccc3nc2-1` [Compound 8, (S)-10-((Dimethylamino)methyl)-4-ethyl-4-hydroxy-3,14-dioxo-3,4,12,14-tetrahydro-1H-pyrano[3′,4′:6,7]indolizino[1,2-b]quinolin-9-yl 4-(6-(((5R,8S,9R,10R,13R,14R,17R)-10,13-dimethyl-3-oxohexadecahydro-1H-cyclopenta[a]phenanthren-17-yl)oxy)hexyl)piperazine-1-carboxylate], the pIC50 at AR was 6.30 to 8.00; in assay [1] (setting [5]), less than 6.00. Further, the GI50 with LNCap cells (setting [6]) and in the assay on 22Rv1 cells (setting [7]) was 10 to 500 nM throughout. Also, the IC50 in the assay with IEC6 cells was more than 1000 nM.
